The text below walks through data of ChEMBL document CHEMBL5344403, “Discovery and evaluation of phenacrylanilide derivatives as novel potential anti-liver fibrosis agents” (Eur J Med Chem, 2022).

Activity calls are given as the source filed them. No cut-off for these calls is given here.

For data set [1], the system named is LX-2. Description: Inhibition of TGF-beta1-induced human LX2 activation at 20 uM pretreated with TGF-beta1 for 1 hr followed by compound addition and measured after 72 hrs by CCK-8 assay relative to control. The format is functional. On the technique in general: Tetrazolium assays rely on reduction of a dye to a coloured formazan, in cell work by metabolically active cells.

Data set [2] in a line: Antiproliferative activity against human LX2 cells assessed as cell survival rate at 20 uM incubated for 72 hrs by CCK-8 assay. Format: toxicity, cell-based. As to conditions: LX-2 cells, read-out: Activity.
Data set [3] concerns LX-2. Kind of data set: Antifibrotic activity against TGF-beta1 induced human LX2 cells assessed as reduction of fibronectin expression at 20 uM pretreated with TGF-beta1 for 1 hr followed by compound addition and measured after 24 hrs by Western blot analysis. The format is functional, cell-based. On the technique in general: In western blotting, separated proteins are transferred to a membrane and probed.

Data set [4] is described as follows: Antiproliferative activity against human LO2 cells assessed as inhibition of cell growth incubated for 72 hrs by CCK-8 assay. Format: toxicity, cell-based. As to conditions: LO2 (L02) cells.
Data set [5] has as its system LX-2. Description: Antifibrotic activity against TGF-beta1 induced human LX2 cells assessed as reduction of alpha-SMA expression at 20 uM pretreated with TGF-beta1 for 1 hr followed by compound addition and measured after 24 hrs by Western blot analysis. Format: functional, cell-based.

Usually inhibition stands for the drop in the measured response relative to a control, in per cent. For the compound `COc1ccc(/C=C/C(=O)Nc2ccc(C(=O)O)cc2)cc1OC`, the inhibition at 20 µM in the data set on LX-2 [1] was 31%. In data set [2], the viability at 72 h, 20 µM is 81.5%.
One may read the IC50 as the concentration needed to halve the response being measured. In the case of `COc1ccc(/C=C/C(=O)Nc2ccc(C(=O)NC3CCCC3)cc2)cc1OC`, the outcome with LX-2 [3] and with LX-2 [5] was Active. Moreover, in data set [4], the IC50 at 72 h is 13.3 µM. Moreover, the inhibition at 20 µM in the data set with LX-2 [1] amounted to 48.3%. The viability at 72 h, 20 µM in data set [2] was 46%.
Consider `COc1cccc(/C=C/C(=O)Nc2ccc(C(=O)NC3CCCC3)cc2)c1`, for which, in the data set with LX-2 [1], the inhibition at 20 µM was 19%. Also, in data set [2], the viability at 72 h, 20 µM is 70.8%.
Turning to `COc1ccc(/C=C/C(=O)Nc2ccc(C(=O)O)nc2)cc1OC`, in the data set with LX-2 [1], the inhibition at 20 µM came out at 14%. In data set [2], the viability at 72 h, 20 µM was 98%.
`Cc1cc(C)cc(/C=C/C(=O)Nc2ccc(C(=O)NC3CCCC3)cc2)c1`: in the data set with LX-2 [1], the inhibition at 20 µM was determined as 3%. Further, in data set [2], the viability at 72 h, 20 µM was 80.5%.
On the same counts, the results for `COc1ccc(/C=C/C(=O)Nc2ccc(C(=O)NC3CCNC3)nc2)cc1OC` (stereo unspecified) are 19.5% and 76.5%.
`CNC(=O)c1ccccc1NC(=O)/C=C/c1ccc(OC)c(OC)c1`: the inhibition at 20 µM in the data set on LX-2 [1] worked out at 13%. Moreover, in data set [2], the viability at 72 h, 20 µM came out at 67%.
Regarding `O=C(/C=C/c1ccc2c(c1)OCO2)Nc1ccc(C(=O)NC2CCCC2)cc1`, the inhibition at 20 µM in the data set with LX-2 [1] was 22%. For the same compound, in data set [2], the viability at 72 h, 20 µM was 78%.
For the compound `COc1ccc(/C=C/C(=O)Nc2cccc(C(=O)NC3CCCCC3)c2)cc1OC`, in the data set with LX-2 [1], the inhibition at 20 µM was 49.6%. The viability at 72 h, 20 µM in data set [2] came out at 39.8%.
For the compound `COc1ccc(/C=C/C(=O)Nc2ccccc2C(=O)N2CCCCC2)cc1OC`, the inhibition at 20 µM with LX-2 [1] is 13%. Besides, the viability at 72 h, 20 µM in data set [2] stood at 88.7%.
Take `COc1ccc(/C=C/C(=O)Nc2cccc(C(=O)N3CCCCC3)c2)cc1OC`: the inhibition at 20 µM with LX-2 [1] is 17.7%. The viability at 72 h, 20 µM in data set [2] is 68.8%.
`O=C(/C=C/c1ccc2c(c1)OCCO2)Nc1ccc(C(=O)NC2CCCC2)cc1`: in the data set with LX-2 [1], the inhibition at 20 µM is 18%. Also, the viability at 72 h, 20 µM in data set [2] was determined as 69.3%.
With `CNC(=O)c1ccc(NC(=O)/C=C/c2ccc(OC)c(OC)c2)cc1`, the inhibition at 20 µM in the data set with LX-2 [1] is 24%. Also, the viability at 72 h, 20 µM in data set [2] is 79.5%.
The corresponding values for `COc1cccc(/C=C/C(=O)Nc2ccc(C(=O)NC3CCCC3)cc2)c1OC` are 17.3% and 77%.
For `COc1ccc(/C=C/C(=O)Nc2ccccc2C(=O)NC2CC2)cc1OC`, in the data set with LX-2 [1], the inhibition at 20 µM worked out at 1.5%. The viability at 72 h, 20 µM in data set [2] turned out to be 71.5%.
With `COc1ccc(/C=C/C(=O)Nc2cccc(C(=O)O)c2)cc1OC`, in the data set with LX-2 [1], the inhibition at 20 µM was determined as 26%. Moreover, in data set [2], the viability at 72 h, 20 µM amounted to 79.3%.
The corresponding values for `COc1ccc(/C=C/C(=O)Nc2ccccc2C(=O)NC2CCCCC2)cc1OC` are 20% and 45.3%.
With `COc1ccc(/C=C/C(=O)Nc2ccc(C(=O)N3CCCCC3)cc2)cc1OC`, the inhibition at 20 µM with LX-2 [1] is 29.5%. In addition, in data set [2], the viability at 72 h, 20 µM came out at 74%.
For the compound `COc1ccc(/C=C/C(=O)Nc2ccc(C(=O)NC3CC3)cc2)cc1OC`, the inhibition at 20 µM in the data set on LX-2 [1] was 24.5%. Moreover, the viability at 72 h, 20 µM in data set [2] was 74.3%.
Consider `COc1ccc(/C=C/C(=O)Nc2ccc(C(=O)NC3CCNC3)cc2)cc1OC` (stereo unspecified), for which the inhibition at 20 µM in the data set with LX-2 [1] worked out at 17%. Moreover, in data set [2], the viability at 72 h, 20 µM came to 80.3%.
With `COc1ccc(/C=C/C(=O)Nc2ccccc2C(=O)NC2CCCC2)cc1OC`, the inhibition at 20 µM in the data set on LX-2 [1] was determined as 27%. In addition, the viability at 72 h, 20 µM in data set [2] was found to be 88%.
In the case of `COc1ccc(/C=C/C(=O)Nc2ccc(C(=O)NC3CCCC3)cc2)cc1O`, in the data set with LX-2 [1], the inhibition at 20 µM was 29.5%. For the same compound, the viability at 72 h, 20 µM in data set [2] stood at 66.3%.
Regarding `CNC(=O)c1cccc(NC(=O)/C=C/c2ccc(OC)c(OC)c2)c1`, in the data set on LX-2 [1], the inhibition at 20 µM was determined as 28.5%. In data set [2], the viability at 72 h, 20 µM was 79.7%.
`COc1ccc(/C=C/C(=O)Nc2cccc(C(=O)NC3CCC3)c2)cc1OC`: the inhibition at 20 µM with LX-2 [1] came out at 31.7%. Besides, the viability at 72 h, 20 µM in data set [2] was 60%.
In the case of `COc1ccc(/C=C/C(=O)Nc2ccccc2C(=O)NC2CCC2)cc1OC`, in the data set with LX-2 [1], the inhibition at 20 µM turned out to be 19%. Further, the viability at 72 h, 20 µM in data set [2] was determined as 71%.
As for `COc1ccc(/C=C/C(=O)Nc2ccc(C(=O)NC3CCC3)cc2)cc1OC`, the inhibition at 20 µM in the data set on LX-2 [1] was found to be 27%. Also, in data set [2], the viability at 72 h, 20 µM was determined as 68.3%.
In the case of `COc1ccccc1/C=C/C(=O)Nc1cccc(C(=O)NC2CCCC2)c1`, the inhibition at 20 µM with LX-2 [1] worked out at 17.3%. Moreover, the viability at 72 h, 20 µM in data set [2] was 66%.
Regarding `COc1ccc(/C=C/C(=O)Nc2cccc(C(=O)NC3CC3)c2)cc1OC`, the inhibition at 20 µM in the data set with LX-2 [1] worked out at 30%. For the same compound, in data set [2], the viability at 72 h, 20 µM worked out at 65.3%.
Regarding `COc1ccc(CCC(=O)Nc2ccc(C(=O)NC3CCCC3)cc2)cc1OC`, the inhibition at 20 µM in the data set with LX-2 [1] came to 3%. Further, the viability at 72 h, 20 µM in data set [2] amounted to 71.7%.
On the same counts, the results for `COc1ccc(/C=C/C(=O)Nc2ccc(C(=O)NC3CCCC3)cc2)cc1` are 32% and 50.3%.
On to `COc1cccc(/C=C/C(=O)Nc2cccc(C(=O)NC3CCCC3)c2)c1`, for which the inhibition at 20 µM in the data set on LX-2 [1] turned out to be 25.3%. Moreover, the viability at 72 h, 20 µM in data set [2] turned out to be 56%.
Regarding `COc1ccc(OC)c(/C=C/C(=O)Nc2ccc(C(=O)NC3CCCC3)cc2)c1`, the inhibition at 20 µM in the data set with LX-2 [1] was 26.3%. Further, in data set [2], the viability at 72 h, 20 µM stood at 63%.
Consider `COc1ccc(CCC(=O)Nc2cccc(C(=O)NC3CCCC3)c2)cc1OC`, for which, in the data set with LX-2 [1], the inhibition at 20 µM is 13.8%. In addition, the viability at 72 h, 20 µM in data set [2] was found to be 71.7%.
As to `COc1cc(/C=C/C(=O)Nc2ccc(C(=O)NC3CCCC3)cc2)cc(OC)c1`, the outcome with LX-2 [3] and in the data set on LX-2 [5] was Active. Further, in data set [4], the concentration for half-maximal inhibition (IC50) at 72 h was 17.3 µM. Also, in the data set with LX-2 [1], the inhibition at 20 µM came out at 36.7%. Besides, the viability at 72 h, 20 µM in data set [2] came out at 69.7%.
As to `COc1ccc(/C=C/C(=O)Nc2ccc(C(=O)NC3CCCCC3)cc2)cc1OC`, the inhibition at 20 µM in the data set with LX-2 [1] stood at 14%. The viability at 72 h, 20 µM in data set [2] is 81.3%.
Take `COc1ccc(/C=C/C(=O)Nc2cccc(C(=O)NC3CCCC3)c2)cc1OC`: the result with LX-2 [3] and in the data set on LX-2 [5] was Active. For the same compound, in data set [4], the IC50 at 72 h amounted to 8.4 µM. The inhibition at 20 µM in the data set on LX-2 [1] is 53.8%. For the same compound, the viability at 72 h, 20 µM in data set [2] was determined as 44.3%.
